Measured values reported in ChEMBL document CHEMBL1201862, “PubChem BioAssay data set” (2004).
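Grown in 96-well plates, cells were treated for 48 hours with each compound at five concentrations. Insufficient inhibition: endpoint recorded as highest concentration tested. GI50 = concentration required for 50% inhibition of growth.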 Active and inactive are the calls of the source. Rule as the data show it: active = GI50 up to about 1.1 µM and inactive = higher.

Legend:
Experiment in all cases: growth of human tumour cells (NCI), 48 h
786-0 = tested on: 786-0
A549 = tested on: A549
ACHN = tested on: ACHN
CCRF-CEM = tested on: CCRF-CEM
COLO 205 = tested on: COLO 205
DMS-114 = tested on: DMS-114
DMS-273 = tested on: DMS-273
EKVX = tested on: EKVX
HCT-116 = tested on: HCT-116
HL-60 = tested on: HL-60
HOP-18 = tested on: HOP-18
HOP-92 = tested on: HOP-92
HT-29 = tested on: HT-29
K562 = tested on: K562
LXFL 529 = tested on: LXFL 529
M14 = tested on: M14
MOLT-4 = tested on: MOLT-4
Malme-3M = tested on: Malme-3M
NCI-H226 = tested on: NCI-H226
NCI-H23 = tested on: NCI-H23
OVCAR-3 = tested on: OVCAR-3
OVCAR-4 = tested on: OVCAR-4
OVCAR-8 = tested on: OVCAR-8
RPMI-8226 = tested on: RPMI-8226
SF-268 = tested on: SF-268
SF-295 = tested on: SF-295
SK-MEL-28 = tested on: SK-MEL-28
SK-OV-3 = tested on: SK-OV-3
SN12C = tested on: SN12C
SNB-19 = tested on: SNB-19
SNB-75 = tested on: SNB-75
SNB-78 = tested on: SNB-78
U-251 = tested on: U-251
UACC-257 = tested on: UACC-257
UO-31 = tested on: UO-31
XF498 = tested on: XF498
A498 = tested on: A498
CAKI-1 = tested on: CAKI-1
DLD-1 = tested on: DLD-1
HCC 2998 = tested on: HCC 2998
HOP-62 = tested on: HOP-62
IGROV-1 = tested on: IGROV-1
KM-20L2 = tested on: KM-20L2
KM12 = tested on: KM12
LOX IMVI = tested on: LOX IMVI
M19-MEL = tested on: M19-MEL
NCI-H460 = tested on: NCI-H460
NCI-H522 = tested on: NCI-H522
OVCAR-5 = tested on: OVCAR-5
RXF 393 = tested on: RXF 393
SF-539 = tested on: SF-539
SK-MEL-2 = tested on: SK-MEL-2
SK-MEL-5 = tested on: SK-MEL-5
SR = tested on: SR
SW-620 = tested on: SW-620
TK-10 = tested on: TK-10
UACC-62 = tested on: UACC-62

Measured: GI50

c1ccc(-c2nc3ccccc3nc2SCc2cccnc2)cc1
inactive: 786-0 > 100 µM | A549 > 100 µM | ACHN > 100 µM | CCRF-CEM > 100 µM | COLO 205 > 100 µM | DMS-114 > 100 µM | DMS-273 > 100 µM | EKVX > 100 µM | HCT-116 > 100 µM | HL-60 > 100 µM | HOP-18 14.4 µM | HOP-92 > 100 µM | HT-29 > 100 µM | K562 > 100 µM | LXFL 529 > 100 µM | M14 > 100 µM | MOLT-4 > 100 µM | Malme-3M > 100 µM | NCI-H226 > 100 µM | NCI-H23 > 100 µM | OVCAR-3 > 100 µM | OVCAR-4 > 100 µM | OVCAR-8 > 100 µM | RPMI-8226 > 100 µM | SF-268 > 100 µM | SF-295 > 100 µM | SK-MEL-28 > 100 µM | SK-OV-3 > 100 µM | SN12C > 100 µM | SNB-19 > 100 µM | SNB-75 > 100 µM | SNB-78 > 100 µM | U-251 > 100 µM | UACC-257 > 100 µM | UO-31 56.6 µM | XF498 > 100 µM

C[S+]([O-])c1ccc(COP(N)(=O)N(CCCl)CCCl)cc1 (configuration not stated)
inactive: 786-0 > 100 µM | A498 > 100 µM | A549 > 100 µM | ACHN > 100 µM | CAKI-1 > 100 µM | CCRF-CEM > 100 µM | COLO 205 > 100 µM | DLD-1 > 100 µM | DMS-114 > 100 µM | DMS-273 > 100 µM | EKVX > 100 µM | HCC 2998 > 100 µM | HCT-116 > 100 µM | HL-60 > 100 µM | HOP-62 > 100 µM | HOP-92 > 100 µM | HT-29 > 100 µM | IGROV-1 > 100 µM | K562 > 100 µM | KM-20L2 > 100 µM | KM12 > 100 µM | LOX IMVI > 100 µM | LXFL 529 > 100 µM | M14 > 100 µM | M19-MEL > 100 µM | MOLT-4 > 100 µM | Malme-3M > 100 µM | NCI-H226 > 100 µM | NCI-H23 > 100 µM | NCI-H460 > 100 µM | NCI-H522 > 100 µM | OVCAR-3 > 100 µM | OVCAR-4 > 100 µM | OVCAR-5 > 100 µM | OVCAR-8 > 100 µM | RPMI-8226 > 100 µM | RXF 393 > 100 µM | SF-268 > 100 µM | SF-295 > 100 µM | SF-539 > 100 µM | SK-MEL-28 > 100 µM | SK-MEL-2 > 100 µM | SK-MEL-5 > 100 µM | SK-OV-3 > 100 µM | SN12C > 100 µM | SNB-19 > 100 µM | SNB-75 > 100 µM | SNB-78 > 100 µM | SR > 100 µM | SW-620 > 100 µM | TK-10 > 100 µM | U-251 > 100 µM | UACC-257 > 100 µM | UACC-62 > 100 µM | UO-31 > 100 µM | XF498 > 100 µM
